Measured values: US12030888B2, “Himastatin derivatives, and processes of preparation thereof, and uses thereof” (priority 2021, dated 2024)
In brackets after ≈: the same amount, converted by molar mass. Read-outs that look alike come from different tables or passages of the source. Numbered stars: 1 amine (or outer) side, 2 acyl side, 3 side chain; on linkers, the order of the positions; unused ones are H or OH. Square brackets hold non-standard residues; d marks the D form. Peptide text beside a SMILES is read from it. X1 = O=C([C@@H]1C[C@@]2(O)c3ccccc3N[C@H]2N1[*:1])[*:2]; X2 = O=C([C@H]1C[C@]2(O)c3ccccc3N[C@@H]2N1[*:1])[*:2]; X3 = O=C([C@@H]1C[C@H](O)CNN1[*:1])[*:2]; dPiz(5R-OH) = O=C(O)[C@H]1C[C@@H](O)CNN1; Lys(N3) = [N-]=[N+]=NCCCC[C@H](N)C(=O)O; NMeV = CN[C@H](C(=O)O)C(C)C; dHiv = CC(C)[C@@H](O)C(=O)O; Hiv = CC(C)[C@H](O)C(=O)O

Assays:
[1] = test system: Methicillin-Sensitive S. aureus (Newman); format: cell-based, Staphylococcus aureus; settings: Newman
Protocol: (§1) Bacillus subtilis subsp. spizizenii (ATCC 6633) and Streptomyces himastatinicus (ATCC 53653) were obtained from the American Type Culture Collection (ATCC). Methicillin-resistant and methicillin-susceptible Staphylococcus aureus (Newman), and vancomycin-resistant (V583) and vancomycin-susceptible (T7) Enterococcus faecalis were obtained from the lab of Dr. Roby P. Bhattacharyya (Massachusetts General Hospital).^6 B. subtilis was grown in brain-heart infusion (BHI) medium at 37° C., S. himastatinicus was grown in tryptone-yeast extract broth (ISP medium 2) at 28° C., E. faecalis was grown in Todd-Hewitt broth, and all other organisms were grown in lysogeny broth (LB) medium at 37° C.
(§2) Minimum inhibitory concentration (MIC) was determined using the broth microdilution method. 20-fold stocks of compound in DMSO were diluted 10-fold in MHB medium and 100 μL of each were added to the first well of a 96-well plate. 50 μL of the first well was then serially diluted through 50 μL MHB medium in wells 2-11. To prepare the bacterial culture, an overnight culture was diluted in MHB until the turbidity matched that of McFarland standard 0.5. Then, the culture was diluted 1:100 and added to wells 1-11, resulting in 2-fold dilutions of antibiotic beginning at 64 μg/mL and a final inoculum of 5×10^5 cfu/mL. 100 μL of MHB medium was added to well 12 as a sterility control, and a row containing no antibiotic was used as a growth control. The plate was incubated at the organism's respective growth temperature overnight (B. subtilis) or 72 h (S. himastatinicus) and the MIC was determined using OD600.
(§3) Minimum inhibitory concentration (MIC) was determined using the broth microdilution method.^7 20-fold (1.28 mg/mL) stocks of compound in dimethylsulfoxide, stored as frozen (−80° C.) 30-μL aliquots, were diluted 10-fold in Mueller Hinton broth (MHB) and a 100-μL sample of each was added to the first well of a 96-well plate. A 50-μL sample of the first well was then serially diluted two-fold through 50-μL NMB medium in wells 2-11. A bacterial culture was prepared from a frozen (−80° C.) stock in the organism's respective growth medium and grown overnight. The culture was then diluted in MHB until the turbidity matched that of McFarland standard 0.5 by measuring the optical density at 600 nm (1×10^8 cfu/mL). Then, the culture was diluted 1:100 and a 50-μL aliquot was added to wells 1-11, resulting in 2-fold dilutions of antibiotic from 64 μg/mL down to 0.0625 μg/mL and a final inoculum of 5×10^5 cfu/mL. A 100-μL aliquot of MHB medium was added to well 12 as a sterility control, and a row containing no antibiotic was used as a growth control. The plate was incubated at the organism's respective growth temperature overnight or 72 h (S. himastatinicus). The MIC was determined by observing the well density by eye and, with the exception of S. himastatinicus which grows in solid colonies in media, was confirmed by measuring the optical density of each well at 600 nm. At least two assays were conducted for each organism on identical lots of compound. No degradation of compound stocks in dimethylsulfoxide was observed by LC-MS analysis after being subjected to multiple freeze-thaw cycles.

[2] = test system: Vancomycin-Sensitive E. faecalis (T7); format: cell-based, Enterococcus faecalis; settings: Vancomycin-Sensitive (T7)
Protocol: as §1, §2, §3

[3] = test system: Bacillus subtilis (ATCC 6633); format: cell-based; settings: for MIC (μg/mL) B. subtilis: ATCC 6633; for MIC in Bacillus subtilis: text and figure legend
Protocol: as §1, §2, §3

[4] = test system: Methicillin-Resistant Staphylococcus aureus; format: cell-based; settings: Methicillin-Resistant
Protocol: as §1, §2, §3

[5] = test system: Streptomyces himastatinicus (ATCC 53653); format: cell-based; settings: ATCC 53653, 72 h
Protocol: as §1, §2, §3

[6] = test system: Vancomycin-Resistant Enterococcus faecalis (V583); format: cell-based; settings: Vancomycin-Resistant (V583)
Protocol: as §1, §2, §3

Gram-positive bacteria = format: cell-based; settings: relative to (−)-himastatin (1) where a derivative
Protocol: as §1, §2, §3

| Compound | MIC (μg/mL) MSSA [1] [µg/mL] | MIC (μg/mL) VSE faecalis [2] [µg/mL] | MIC (μg/mL) B. subtilis [3] [µg/mL] | MIC (μg/mL) MRSA [4] [µg/mL] | MIC (μg/mL) S. himastatinicus [5] [µg/mL] | MIC (μg/mL) VRE faecalis [6] [µg/mL] | antibiotic activity (in words) (Gram-positive bacteria) | MIC in Bacillus subtilis [3] [µg/mL] | MIC in Bacillus subtilis ([3]; listed as TAMRA-himastatin) [µg/mL] | antibiotic activity (in words) (Gram-positive bacteria; listed as (−)-15) | antibiotic activity (in words) (Gram-positive bacteria; listed as (−)-19) |
| --- | --- | --- | --- | --- | --- | --- | --- | --- | --- | --- | --- |
| CC(C)C[C@@H]1NC(=O)[C@H]2C[C@@H](O)CNN2C(=O)[C@H](C(C)C)NC(=O)[C@@H](C(C)C)NC(=O)[C@@H]2C[C@@]3(O)c4ccccc4N[C@H]3N2C(=O)[C@@H]([C@H](C)O)NC1=O [(+)-25, Cyclic Hexapeptide] (cyclo(L[dT][X1][dV]V[dPiz(5R-OH)])) | >64 | >64 | >64 | >64 | >64 | >64 |  |  |  |  |  |
| CC(C)C[C@@H]1NC(=O)[C@H]2C[C@@H](O)CNN2C(=O)[C@H](C(C)C)N(C)C(=O)[C@@H](C(C)C)NC(=O)[C@@H]2C[C@@]3(O)c4ccccc4N[C@H]3N2C(=O)[C@@H]([C@H](C)O)NC1=O [(+)-27, N-Methyl Cyclic Hexapeptide] (cyclo(L[dT][X1][dV][NMeV][dPiz(5R-OH)])) | >64 | >64 | >64 | >64 | >64 | >64 |  |  |  |  |  |
| CC(C)C[C@@H]1NC(=O)[C@H]2C[C@@H](O)CNN2C(=O)[C@H](C(C)C)N(C)C(=O)[C@@H](C(C)C)NC(=O)[C@@H]2C[C@@]3(O)c4cc(-c5ccc6c(c5)[C@]5(O)C[C@H]7C(=O)N[C@H](C(C)C)C(=O)N(C)[C@@H](C(C)C)C(=O)N8NC[C@H](O)C[C@@H]8C(=O)N[C@@H](CC(C)C)C(=O)N[C@H]([C@H](C)O)C(=O)N7[C@@H]5N6)ccc4N[C@H]3N2C(=O)[C@@H]([C@H](C)O)NC1=O [(−)-28, Himastatin N-Methyl Lactam Derivative] | >64 | >64 | >64 | >64 | >64 | >64 | decreasing antibiotic activity |  |  |  |  |
| CC(C)C[C@@H]1NC(=O)[C@H]2C[C@@H](O)CNN2C(=O)[C@H](C(C)C)OC(=O)[C@@H](C(C)C)NC(=O)[C@@H]2C[C@@]3(O)c4cc(-c5ccc6c(c5)[C@]5(O)C[C@H]7C(=O)N[C@H](C(C)C)C(=O)O[C@@H](C(C)C)C(=O)N8NC[C@H](O)C[C@@H]8C(=O)N[C@@H](CCCCNC(=O)c8ccc9c(c8)C(=O)OC98c9ccc(N(C)C)cc9Oc9cc(N(C)C)ccc98)C(=O)N[C@H]([C@H](C)O)C(=O)N7[C@@H]5N6)ccc4N[C@H]3N2C(=O)[C@@H]([C@H](C)O)NC1=O [(−)-25, TAMRA Himastatin Heterodimer] |  |  |  |  |  |  |  | 6 (≈ 3.14 µM) | ~8 (≈ 4.18 µM) |  |  |
| CC(C)C[C@@H]1NC(=O)[C@H]2C[C@@H](O)CNN2C(=O)[C@H](C(C)C)NC(=O)[C@@H](C(C)C)NC(=O)[C@@H]2C[C@@]3(O)c4cc(-c5ccc6c(c5)[C@]5(O)C[C@H]7C(=O)N[C@H](C(C)C)C(=O)N[C@@H](C(C)C)C(=O)N8NC[C@H](O)C[C@@H]8C(=O)N[C@@H](CC(C)C)C(=O)N[C@H]([C@H](C)O)C(=O)N7[C@@H]5N6)ccc4N[C@H]3N2C(=O)[C@@H]([C@H](C)O)NC1=O [(−)-26, Himastatin Lactam Derivative] | 16 (≈ 10.8 µM) | 16 (≈ 10.8 µM) | 8 (≈ 5.39 µM) | 32 (≈ 21.6 µM) | >64 | 32 (≈ 21.6 µM) | modest reduction in antibiotic activity |  |  | decreasing antibiotic activity |  |
| CC(C)C[C@H]1NC(=O)[C@@H]2C[C@H](O)CNN2C(=O)[C@@H](C(C)C)OC(=O)[C@H](C(C)C)NC(=O)[C@H]2C[C@]3(O)c4ccccc4N[C@@H]3N2C(=O)[C@H]([C@@H](C)O)NC1=O [(−)-6, ent-himastatin monomer] (cyclo([dL]T[X2]V[dHiv][X3])) | >64 | >64 | >64 | >64 | 8 (≈ 10.8 µM) | >64 |  |  |  |  |  |
| CC(C)C[C@@H]1NC(=O)[C@H]2CCCN2C(=O)[C@H](C(C)C)OC(=O)[C@@H](C(C)C)NC(=O)[C@@H]2C[C@@]3(O)c4ccccc4N[C@H]3N2C(=O)[C@@H]([C@H](C)O)NC1=O [(+)-29, Proline Cyclic Depsihexapeptide] (cyclo([Hiv][dP]L[dT][X1][dV])) | >64 | >64 | >64 | >64 | >64 | >64 |  |  |  |  |  |
| CC(C)C[C@@H]1NC(=O)[C@H]2CCCN2C(=O)[C@H](C(C)C)OC(=O)[C@@H](C(C)C)NC(=O)[C@@H]2C[C@@]3(O)c4cc(-c5ccc6c(c5)[C@]5(O)C[C@H]7C(=O)N[C@H](C(C)C)C(=O)O[C@@H](C(C)C)C(=O)N8CCC[C@@H]8C(=O)N[C@@H](CC(C)C)C(=O)N[C@H]([C@H](C)O)C(=O)N7[C@@H]5N6)ccc4N[C@H]3N2C(=O)[C@@H]([C@H](C)O)NC1=O [(−)-30, Himastatin Proline Derivative] | >64 | >64 | >64 | >64 | >64 | >64 | complete abolishment of antibiotic activity |  |  |  | antibiotic activity was completely abolished |
| CC(C)[C@@H]1OC(=O)[C@@H](C(C)C)NC(=O)[C@@H]2C[C@@]3(O)c4ccccc4N[C@H]3N2C(=O)[C@@H]([C@H](C)O)NC(=O)[C@H](CCCCN=[N+]=[N-])NC(=O)[C@H]2C[C@@H](O)CNN2C1=O [(+)-31, Azido Cyclic Depsihexapeptide] (cyclo([Hiv][dPiz(5R-OH)][Lys(N3)][dT][X1][dV])) | >64 | >64 | >64 | >64 | >64 | >64 |  |  |  |  |  |
| CC(C)C[C@@H]1NC(=O)[C@H]2C[C@@H](O)CNN2C(=O)[C@H](C(C)C)OC(=O)[C@@H](C(C)C)NC(=O)[C@@H]2C[C@@]3(O)c4ccccc4N[C@H]3N2C(=O)[C@@H]([C@H](C)O)NC1=O [(+)-6, Himastatin Monomer, reference compound] (cyclo([Hiv][dPiz(5R-OH)]L[dT][X1][dV])) | >64 | >64 | >64 | >64 | >64 | >64 | inactive |  |  |  |  |
